Source: ChEMBL document CHEMBL5380816, “Inclusion of Nitrofurantoin into the Realm of Cancer Chemotherapy via Biology-Oriented Synthesis and Drug Repurposing” (J Med Chem, 2023)
pIC50: −log10 of the molar value. Active and inactive are the calls of the source. The calls are words filed in the database; no cut-off is given here.

What was measured:
[1] = tested on: HepG2; assay: Anticancer activity against human HepG2 cells assessed as round cells incubated at 0.097uM for 72 hrs by phase contrast inverted microscopic analysis; assay type: functional, cell-based
[2] = tested on: MCF7; assay: Induction of apoptosis in human MCF7 cells assessed as early apoptotic cells by measuring bright green patch incubated at 0.097 uM for 72 hrs by acridine orange-ethidium bromide dual staining based fluorescence microscopic analysis; assay type: functional, cell-based
[3] = tested on: MCF7; assay: Induction of apoptosis in human MCF7 cells assessed as late apoptotic cells by measuring orange to red patch incubated at 0.097 uM for 72 hrs by acridine orange-ethidium bromide dual staining based fluorescence microscopic analysis; assay type: functional, cell-based
[4] = tested on: HeLa; assay: Induction of apoptosis in human HeLa cells assessed as early apoptotic cells incubated at 0.097 uM for 72 hrs by annexin V-FITC based propidium iodide dual staining assay (reference value: 2.77%); assay type: functional
[5] = tested on: HeLa; assay: Anticancer activity against human HeLa cells assessed as round cells incubated at 0.097uM for 72 hrs by phase contrast inverted microscopic analysis; assay type: functional, cell-based
[6] = tested on: MCF7; assay: Anticancer activity against human MCF7 cells assessed as losing contact with neighbouring cells incubated at 0.097uM for 72 hrs by phase contrast inverted microscopic analysis; assay type: functional, cell-based
[7] = tested on: Caco-2; assay: Anticancer activity against human Caco-2 cells assessed as losing contact with neighbouring cells incubated at 0.097uM for 72 hrs by phase contrast inverted microscopic analysis; assay type: functional, cell-based
[8] = tested on: HepG2; assay: Induction of apoptosis in human HepG2 cells assessed as caspase3/7 activation at 0.11 uM using caspase-glo 3/7 as substrate relative to control; assay type: functional
[9] = tested on: MCF7; assay: Induction of oxidative stress in human MCF7 cells assessed as cell death by measuring redox alteration fluorescence incubated at 0.097 uM for 72 hrs in presence of dihydro dichlorofluorescein diacetate by DCFH-DA based flow cytometric analysis relative to control; assay type: functional
[10] = tested on: HepG2; assay: Anticancer activity against human HepG2 cells assessed as round cells incubated at 0.11 uM for 72 hrs by phase contrast inverted microscopic analysis; assay type: functional, cell-based
[11] = tested on: HepG2; assay: Induction of apoptosis in human HepG2 cells assessed as early apoptotic cells by measuring bright green patch incubated at 0.11 uM for 72 hrs by acridine orange-ethidium bromide dual staining based fluorescence microscopic analysis; assay type: functional, cell-based
[12] = tested on: MCF7; assay: Anticancer activity against human MCF7 cells assessed as smaller cells incubated at 0.11 uM for 72 hrs by phase contrast inverted microscopic analysis; assay type: functional, cell-based
[13] = tested on: MCF7; assay: Induction of cell cycle arrest in human MCF7 cells assessed as accumulation of cells at sub-G0/G1 phase incubated for 24 hrs; assay type: functional, cell-based
[14] = tested on: MCF7; assay: Induction of apoptosis in human MCF7 cells assessed as late apoptotic cells incubated at 0.11 uM for 72 hrs by annexin V-FITC based propidium iodide dual staining assay (reference value: 0.01%); assay type: functional
[15] = tested on: Caco-2; assay: Induction of apoptosis in human Caco-2 cells assessed as viable cells incubated at 0.11 uM for 72 hrs by annexin V-FITC based propidium iodide dual staining assay (reference value: 99.89%); assay type: functional; conditions: read-out: Activity
[16] = tested on: MCF7; assay: Anticancer activity against human MCF7 cells incubated for 24 hrs by MTT assay; assay type: functional, cell-based; conditions: MCF7, 24 h
[17] = tested on: MCF7; assay: Induction of DNA damage in human MCF7 cells assessed as increase in p53 expression at 5 uM incubated for 24 hrs by Western blot analysis; assay type: functional, cell-based
[18] = tested on: Calf thymus DNA; assay: Induction of calf thymus DNA damage assessed as disrupted by DNA by measuring decrease in fluorescence intensity at 200 uM by EvaGreen based fluorescence plate reader analysis; assay type: nucleic-acid assay; conditions: Bos taurus
[19] = tested on: HepG2; assay: Induction of apoptosis in human HepG2 cells assessed as late apoptotic cells incubated at 0.11 uM for 72 hrs by annexin V-FITC based propidium iodide dual staining assay (reference value: 0.66%); assay type: functional
[20] = tested on: HeLa; assay: Anticancer activity against human HeLa cells assessed as round cells incubated at 0.11 uM for 72 hrs by phase contrast inverted microscopic analysis; assay type: functional, cell-based
[21] = tested on: HeLa; assay: Induction of apoptosis in human HeLa cells assessed as early apoptotic cells by measuring bright green patch incubated at 0.11 uM for 72 hrs by acridine orange-ethidium bromide dual staining based fluorescence microscopic analysis; assay type: functional, cell-based
[22] = tested on: Caco-2; assay: Anticancer activity against human Caco-2 cells assessed as cell shrinkage incubated at 0.098uM for 72 hrs by phase contrast inverted microscopic analysis; assay type: functional, cell-based
[23] = tested on: Caco-2; assay: Anticancer activity against human Caco-2 cells assessed as smaller cells incubated at 0.098uM for 72 hrs by phase contrast inverted microscopic analysis; assay type: functional, cell-based
[24] = tested on: MCF7; assay: Induction of apoptosis in human MCF7 cells assessed as early apoptotic cells by measuring bright green patch incubated at 0.098 uM for 72 hrs by acridine orange-ethidium bromide dual staining based fluorescence microscopic analysis; assay type: functional, cell-based
[25] = tested on: HeLa; assay: Induction of apoptosis in human HeLa cells assessed as late apoptotic cells by measuring orange to red patch incubated at 0.098 uM for 72 hrs by acridine orange-ethidium bromide dual staining based fluorescence microscopic analysis; assay type: functional, cell-based
[26] = tested on: HepG2; assay: Induction of apoptosis in human HepG2 cells assessed as necrotic cells incubated at 0.098 uM for 72 hrs by annexin V-FITC based propidium iodide dual staining assay (reference value: 0.33%); assay type: functional
[27] = tested on: HepG2; assay: Induction of apoptosis in human HepG2 cells assessed as total apoptotic cells incubated at 0.098 uM for 72 hrs by annexin V-FITC based propidium iodide dual staining assay (reference value: 0.99 +/- 0.02%); assay type: functional
[28] = tested on: HeLa; assay: Induction of apoptosis in human HeLa cells assessed as early apoptotic cells incubated at 0.098 uM for 72 hrs by annexin V-FITC based propidium iodide dual staining assay (reference value: 2.77%); assay type: functional
[29] = tested on: Caco-2; assay: Anticancer activity against human Caco-2 cells assessed as absence of normal spindle shape incubated at 0.098uM for 72 hrs by phase contrast inverted microscopic analysis; assay type: functional, cell-based
[30] = tested on: HepG2; assay: Induction of apoptosis in human HepG2 cells assessed as late apoptotic cells by measuring orange to red patch incubated at 0.098 uM for 72 hrs by acridine orange-ethidium bromide dual staining based fluorescence microscopic analysis; assay type: functional, cell-based
[31] = tested on: HepG2; assay: Induction of apoptosis in human HepG2 cells assessed as late apoptotic cells incubated at 0.098 uM for 72 hrs by annexin V-FITC based propidium iodide dual staining assay (reference value: 0.66%); assay type: functional
[32] = tested on: HepG2; assay: Induction of apoptosis in human HepG2 cells assessed as viable cells by measuring green uniform patch incubated at 0.017 uM for 72 hrs by acridine orange-ethidium bromide dual staining based fluorescence microscopic analysis; assay type: functional, cell-based
[33] = tested on: MCF7; assay: Induction of apoptosis in human MCF7 cells assessed as total apoptotic cells incubated at 0.017 uM for 72 hrs by annexin V-FITC based propidium iodide dual staining assay (reference value: 0.04 %); assay type: functional
[34] = tested on: HepG2; assay: Induction of apoptosis in human HepG2 cells assessed as viable cells incubated at 0.017 uM for 72 hrs by annexin V-FITC based propidium iodide dual staining assay (reference value: 97.27%); assay type: functional; conditions: read-out: Activity
[35] = tested on: Caco-2; assay: Induction of apoptosis in human Caco-2 cells assessed as late apoptotic cells incubated at 0.017 uM for 72 hrs by annexin V-FITC based propidium iodide dual staining assay (reference value: 0.02%); assay type: functional
[36] = tested on: Caco-2; assay: Induction of oxidative stress in human Caco-2 cells assessed as cell death by measuring redox alteration fluorescence incubated at 0.097 uM for 72 hrs in presence of dihydro dichlorofluorescein diacetate by DCFH-DA based flow cytometric analysis relative to control; assay type: functional

`NS(=O)(=O)c1ccc(-n2cc(CN3C(=O)CN(/N=C/c4ccc([N+](=O)[O-])o4)C3=O)nn2)cc1` was tested, and the Activity [1] was “Active”, the Activity [2] was “Active” and the Activity [3] was “Active”. The Activity [4] was 17.31%, the Activity [5] was “Active” and the Activity [6] was “Active”. For the same compound, the Activity [7] was “Active”.
For `C#CCN1C(=O)CN(/N=C/c2ccc([N+](=O)[O-])o2)C1=O`, the Activity [8] was 63%, the Activity [9] was 35.5% and the Activity [10] was “Active”. For the same compound, the Activity [11] was “Active”, the Activity [12] was “Active” and the Activity [13] was “Active”. It also gave an Activity [14] of 34.7%, a viability at 0.11 µM [15] of 49.4% and a pIC50 [16] of 3.92. The Activity [17] was “Active”, the Activity [18] was “Active” and the Activity [19] was 59.49%. For the same compound, the Activity [20] was “Active” and the Activity [21] was “Active”.
With `O=C(CN1C(=O)CN(/N=C/c2ccc([N+](=O)[O-])o2)C1=O)c1ccc(Cl)cc1` the Activity [22] was “Active”, the Activity [23] was “Active” and the Activity [24] was “Active”. The Activity [25] was “Active”, the Activity [26] was 3.85% and the Activity [27] was 38.74%. The Activity [28] was 6.1%, the Activity [29] was “Active” and the Activity [30] was “Active”. The Activity [31] was 34.89%.
`O=c1[nH]cc(F)c(=O)[nH]1` [FLUOROURACIL] was tested, and the Activity [32] was “Active”, the Activity [33] was 2.94% and the viability at 0.017 µM [34] was 88.4%. For the same compound, the Activity [35] was 2.71% and the Activity [36] was 4.78%.
